The values below come from US11840686B2, “Modulation of prekallikrein (PKK) expression” (Ionis Pharmaceuticals, Inc., priority 2013, dated 2023).

Strand notation (5' to 3'): a small letter for the sugar, then the base; units joined by * are phosphorothioate-linked, units joined directly phosphodiester-linked; [ ] holds rarer units or linkages, { } end groups; capitals alone tell only the bases. e = 2'-O-(2-methoxyethyl) (MOE); [5mC] = 5-methylcytosine; d = 2'-deoxy (DNA)

For series [1], the system named is basal and captopril-induced vascular permeability. As to the kind of experiment: Evans Blue basal and captopril-induced vascular permeability in mice (Example 12). The series is classed as in vivo, mouse. The conditions noted are these: for OD600 nm of Evans Blue dye, Colon / OD600 nm of Evans Blue dye, Ears / OD600 nm of Evans Blue dye, Feet / OD600 nm of Evans Blue dye, Intestine: ISIS 482584 40 mg/kg sc twice a week 4 weeks, HOE-140 30 μg ip. The procedure: Basal permeability is the level of vascular permeability occurring in the tissues of naïve, untreated mice. The effect of ISIS 482584 in the prevention of vascular permeability, either basal or captopril-induced, was evaluated.
Group 1 consisted of 8 mice and was treated with PBS administered subcutaneously twice a week for 4 weeks. No other treatment was administered to Group 1 which served as a control group to measure the basal levels of vascular permeability.
Group 2 consisted of 8 mice and was treated with PBS administered subcutaneously twice a week for 4 weeks. At the end of the treatment period, the mice were intraperitoneally administered 20 μg of captopril. Group 2 served as the negative control group for captopril-induced vascular permeability.
Group 3 consisted of 8 mice and was treated with PBS administered subcutaneously twice a week for 4 weeks. At the end of the treatment period, the mice were intraperitoneally administered 30 μg of HOE-140. Group 3 served as a positive control for inhibition of basal vascular permeability.
Group 4 consisted of 8 mice and was treated with PBS administered subcutaneously twice a week for 4 weeks. At the end of the treatment period, the mice were intraperitoneally administered 20 μg of captopril. The mice were also intraperitoneally administered 30 μg of HOE-140. Group 4 served as a positive control for inhibition of captopril-induced vascular permeability.
Group 5 consisted of 8 mice and was treated with 40 mg/kg of ISIS 482584 administered subcutaneously twice a week for 4 weeks. Group 5 served as an experimental treatment group for examining the effect of ISIS 482584 on basal vascular permeability.
Group 6 consisted of 8 mice and was treated with 40 mg/kg of ISIS 482584 administered subcutaneously twice a week for 4 weeks. At the end of the treatment period, the mice were intraperitoneally administered 20 μg of captopril. Group 6 served as an experimental treatment group for examining the effect of ISIS 482584 on captopril-induced vascular permeability.
All the groups were then injected with 30 mg/kg of Evans Blue solution. The mice were sacrificed 30 min after the Evans Blue solution administration and colons, feet, ears, and intestines were harvested.
The harvested tissues from the feet, colon, intestine, and ears were placed separately in formamide solution overnight to leach out the Evans Blue dye. The formamide solution containing feet and ear tissue was heated to 55° C. and left overnight.

The test system of series [2] is basal vascular permeability. As to the kind of experiment: Dose-dependent effect on basal vascular permeability, Evans Blue OD600 (Example 14). The series is classed as in vivo, mouse. As to conditions: for OD600 nm of Evans Blue dye, Colon / OD600 nm of Evans Blue dye, Ears / OD600 nm of Evans Blue dye, Feet: basal. The procedure:
The effect of varying doses on ISIS 482584 on basal vascular permeability was evaluated.
Group 1 consisted of 8 mice and was treated with PBS administered subcutaneously twice a week for 3 weeks. No other treatment was administered to Group 1 which served as a control group to measure the basal levels of vascular permeability.
Group 2 consisted of 4 mice and was treated with PBS administered subcutaneously twice a week for 3 weeks. At the end of the treatment period, the mice were intraperitoneally administered 30 μg of HOE-140. Group 2 served as a positive control for inhibition of basal vascular permeability.
Groups 3, 4, 5, 6, 7, and 8 consisted of 8 mice each and were treated with 2.5 mg/kg, 5 mg/kg, 10 mg/kg, 20 mg/kg, 40 mg/kg, or 80 mg/kg (corresponding to 5 mg/kg, 10 mg/kg, 20 mg/kg, 40 mg/kg, 80 mg/kg, or 160 mg/kg per week), respectively of ISIS 482584 administered subcutaneously twice a week for 3 weeks. […] served as the experimental treatment groups for examining the effect of varying doses of ISIS 482584 on basal vascular permeability.
All the groups were then injected with 30 mg/kg of Evans Blue solution in the tail vein. The mice were sacrificed 30 min after the Evans Blue solution administration and colons, feet, and ears were harvested and examined for permeability defects. Blood samples were taken through cardiac puncture.
The harvested tissues from the feet, colon, and ears were placed in formamide solution overnight to leach out the Evans Blue dye. The formamide solution containing feet and ear tissue was heated to 55° C. and left overnight. Higher OD values are associated with higher levels of permeability.

Series [3] relates to C1-INH mRNA. As to the kind of experiment: C1-INH mRNA in liver of mice treated with ISIS 461756 (Example 18). The conditions noted are these: liver; all groups ISIS 461756 25 mg/kg/wk; pretreatment PBS or oligonucleotide 80 mg/kg/wk sc 3 weeks. The series is classed as in vivo, mouse. How it is done:
Vascular permeability induced by ISIS 461756, an antisense oligonucleotide which targets murine C1 inhibitor mRNA, increases vascular permeability in mice and replicates the pathology of hereditary angioedema. The effect of ISIS 482584 on this model was evaluated.
One group of 8 mice was treated with 40 mg/kg ISIS 482584 administered subcutaneously twice a week for 3 weeks (weekly dose of 80 mg/kg). A second group of 8 mice was treated with 40 mg/kg of the control oligonucleotide, ISIS 141923, administered subcutaneously twice a week for 3 weeks (weekly dose of 80 mg/kg). A third group of 8 mice was treated with PBS administered subcutaneously twice a week for 3 weeks. On day 14, all the groups were treated with 12.5 mg/kg ISIS 461756 administered subcutaneously twice a week for 3 weeks (weekly dose of 25 mg/kg). A control group of mice was treated with PBS administered subcutaneously twice a week for 3 weeks but was not administered ISIS 461756.
At the end of the treatment period, all the groups were injected with 30 mg/kg of Evans Blue solution into the tail vein. The mice were sacrificed 30 min after the Evans Blue solution administration and colons, feet, ears, and intestines were harvested. The liver was also harvested for RNA analysis.
RNA was isolated from the liver for RT-PCR analysis of C1-INH and PKK mRNAs. The primer probe set for C1-INH is RTS3218 (forward sequence […], designated herein as SEQ ID NO: 2234; reverse sequence […], designated herein as SEQ ID NO: 2235; probe sequence […], designated herein as SEQ ID NO: 2236). The primer probe set for PKK is RTS3287 (forward sequence […], designated herein as SEQ ID NO: 2237; reverse sequence […], designated herein as SEQ ID NO: 2238; probe sequence […], designated herein as SEQ ID NO: 2239). The results are presented in Table 79 as percent inhibition compared to the PBS control not treated with ISIS 461756.

The nature of series [4]: Urine protein/creatinine ratio in cynomolgus monkeys (Example 8). As to conditions: cynomolgus monkey, 40 mg/kg sc.
Description: Prior to the study, the monkeys were kept in quarantine for a 30-day period, during which the animals were observed daily for general health. The monkeys were 2-4 years old and weighed between 2 and 4 kg. Ten groups of four randomly assigned male cynomolgus monkeys each were injected subcutaneously with ISIS oligonucleotide or PBS. PBS solution or ISIS oligonucleotides at a dose of 40 mg/kg were administered initially with a loading regimen consisting of four doses on the first week of the study (days 1, 3, 5, and 7), followed by a maintenance regimen consisting of once weekly administration starting on Day 14 (weeks 2 to 13). Subcutaneous injections were performed in clock-wise rotations at 4 sites on the back; one site per dose. The injection sites were delineated by tattoo, while sedated using ketamine, and were separated by a minimum of 3 cm.
Kidney function was also assessed by urinalysis. Fresh urine from all animals was collected using a clean cage pan on wet ice. Food was removed overnight the day before fresh urine collection was done but water was supplied. The total protein and creatinine levels were measured using a Toshiba 120FR NEO automated chemistry analyzer (Toshiba Co., Japan) and the protein to creatinine ratio was calculated.

`NC(N)=NCCC[C@@H](N)C(=O)N[C@@H](CCCN=C(N)N)C(=O)N1CCC[C@H]1C(=O)N1C[C@H](O)C[C@H]1C(=O)NCC(=O)N[C@@H](Cc1cccs1)C(=O)N[C@@H](CO)C(=O)N1Cc2ccccc2C[C@@H]1C(=O)N1[C@H](C(=O)N[C@@H](CCCN=C(N)N)C(=O)O)C[C@@H]2CCCC[C@@H]21` [HOE-140, Icatibant, reference compound]: in series [1] (basal (captopril No)), the “OD600 nm of Evans Blue dye, Colon” value came to 0.18; the “OD600 nm of Evans Blue dye, Ears” value is given as 0.03; the “OD600 nm of Evans Blue dye, Feet” value is given as 0.06; the “OD600 nm of Evans Blue dye, Intestine” value was 0.21. In series [1] (captopril Yes), the “OD600 nm of Evans Blue dye, Colon” value amounted to 0.29; the “OD600 nm of Evans Blue dye, Ears” value was 0.00; the “OD600 nm of Evans Blue dye, Feet” value was determined as 0.03; the “OD600 nm of Evans Blue dye, Intestine” value worked out at 0.14. In series [2] (HOE-140 30 μg ip), the “OD600 nm of Evans Blue dye, Colon” value was 0.24; the “OD600 nm of Evans Blue dye, Ears” value came to 0.047; the “OD600 nm of Evans Blue dye, Feet” value is on record as 0.09.

With “ISIS 482584: 5-10-5 MOE gapmer targeting murine PKK, GGCATATTGGTTTTTGGAAT; SEQ ID NO: 2244 (antisense eG*eG*e[5mC]*eA*eT*dA*dT*dT*dG*dG*dT*dT*dT*dT*dT*eG*eG*eA*eA*eT)”, the “basal vascular permeability” value in series [1] (40 mg/kg s.c. twice a week for 4 weeks, Group 5 vs. Group 1) is recorded as “reduced basal vascular permeability”; in series [2] (all doses (Groups 3-8), most of the tissues, vs PBS control), “reduced basal vascular permeability”. In addition, the “captopril-induced vascular permeability” value in series [1] (40 mg/kg s.c. twice a week for 4 weeks, Group 6 vs. Group 2) was “reduced captopril-induced vascular permeability in most tissues”. The “OD600 nm of Evans Blue dye, Colon” value in series [1] (basal (captopril No)) was 0.19; in series [1] (captopril Yes), 0.37; in series [2] (5 mg/kg/week sc, 3 weeks), 0.32; in series [2] (10 mg/kg/week sc, 3 weeks), 0.31; in series [2] (20 mg/kg/week sc, 3 weeks), 0.26; in series [2] (40 mg/kg/week sc, 3 weeks) it was 0.27. Moreover, the “OD600 nm of Evans Blue dye, Colon” value in series [2] (80 mg/kg/week sc, 3 weeks) is on record as 0.24; in series [2] (160 mg/kg/week sc, 3 weeks) it was 0.25. Besides, the “OD600 nm of Evans Blue dye, Ears” value in series [1] (basal (captopril No)) amounted to 0.04; in series [1] (captopril Yes), 0.00; in series [2] (5 mg/kg/week sc, 3 weeks), 0.009; in series [2] (10 mg/kg/week sc, 3 weeks) it was 0.015; in series [2] (20 mg/kg/week sc, 3 weeks) it was 0.009; in series [2] (40 mg/kg/week sc, 3 weeks), 0.011. The “OD600 nm of Evans Blue dye, Ears” value in series [2] (80 mg/kg/week sc, 3 weeks) was 0.014; in series [2] (160 mg/kg/week sc, 3 weeks), 0.019. Besides, the “OD600 nm of Evans Blue dye, Feet” value in series [1] (basal (captopril No)) was 0.07; in series [1] (captopril Yes), 0.05; in series [2] (5 mg/kg/week sc, 3 weeks), 0.11; in series [2] (10 mg/kg/week sc, 3 weeks) it was 0.10; in series [2] (20 mg/kg/week sc, 3 weeks), 0.11; in series [2] (40 mg/kg/week sc, 3 weeks), 0.11. For the same compound, the “OD600 nm of Evans Blue dye, Feet” value in series [2] (80 mg/kg/week sc, 3 weeks) is recorded as 0.09; in series [2] (160 mg/kg/week sc, 3 weeks) it was 0.11. Further, the “OD600 nm of Evans Blue dye, Intestine” value in series [1] (basal (captopril No)) and in series [1] (captopril Yes) was 0.22 each time. Also, the “Percent inhibition of C1-INH mRNA expression compared to the untreated PBS control” value in series [3] was 77%.

As for “Tes Ges mCes Aes Aes Gds Tds mCds Tds mCds Tds Tds Gds Gds mCds Aes Aes Aes mCes Ae [ISIS 546254]”, the Urine protein/creatinine ratio in series [4] was found to be 0.04.
